ChEMBL document CHEMBL5042484, “Design of SARS-CoV-2 PLpro Inhibitors for COVID-19 Antiviral Therapy Leveraging Binding Cooperativity” (J Med Chem, 2022)

test system: SARS-CoV-2; experiment: Antiviral activity against SARS-COV-2 USA/WA1/2020 in human A549 cells overexpressing ACE2 receptor assessed as reduction in viral replication at MOI of 0.01 pretreated for 1 hr followed by viral infection and further incubated for 1 hr measured after 48 hrs by RT-qPCR analysis; type: functional, organism-based; conditions: Severe acute respiratory syndrome coronavirus 2, USA/WA1/2020, A549

Row | Structure (SMILES) | EC50 [nM]
1 | Cc1ccc(N)cc1C(=O)N[C@H](C)c1cccc2ccccc12 | > 20000
2 | Cc1ccc(NC2CNC2)cc1C(=O)N[C@H](C)c1cccc(-c2ccc(CN3CCCC3)s2)c1 | 1200
3 | Cc1ccc(NC2CNC2)cc1C(=O)N[C@H](C)c1cccc(-c2ccc(CNC3CCCC3)s2)c1 | 1400
